{"source": "patent US9724537B2", "about": "“Abnormal electrical conduction blocking apparatus using photodynamic therapy (PDT)” (Keio University, priority 2006, dated 2017)", "key": {"[1]": {"tested_on": "rat cardiac muscle cells in primary culture", "assay": "Pulsation and cell conditions of cardiac muscle cells in primary culture after PDT", "format": "cell-based", "experimental": "Cardiac muscle cells in primary culture were purchased in suspension and seeded on a 96-well microplate. Cells were cultured at 37° C. under 5% CO2, and cells on days 3 and 7 of culture were used. The cardiac muscle cells in primary culture were pulsatile, and pulsations among cells were synchronizing.\nCardiac muscle cells in primary culture were adjusted to a density of 2.0×10^4 cells/well. As a photosensitizer talaporfin sodium was dissolved in a medium at various concentrations and added at a concentration of 0.1 ml/well. After 1 to 2 h of loading, laser irradiation was performed, and the medium was replaced after the completion of irradiation.\nAt this time, a 0.5-cm^2 irradiation field (=area of well) was irradiated with a continuous semiconductor laser beam (peak wavelength, 670.8 nm) under various conditions. […]\nLaser intensity: 150 mW/cm^2\nTotal energy density: 1, 2, 3, 5 J/cm^2\nIn Table 1, 1d, 2d, and 3d refer to one, two, and three days after PDT, respectively. μg refers to the photosensitizer concentration in μg/ml. Numerical values in Table 1 are (number of samples in which pulsation restarted)/(total number of samples)."}, "[2]": {"tested_on": "cultured cardiac muscle cells derived from an SD rat", "assay": "Changes in intracellular Ca^2+ concentration during PDT (Fluo-4AM)", "format": "cell-based", "experimental": "Intracellular Ca^2+ concentration changes in cells on day 1 after seeding were measured with the four protocols described later. Cultured cardiac muscle cells derived from an SD rat were used. As a medium for cell culture, D-MEM/F12+10% FBS was used. Before subjected to the experiment, cardiac muscle cells in suspension at 1.6×10^5 cells/ml were seeded on a 24-well plate with a glass bottom at 0.5 ml/well (8.0×10^4 cells/well) and cultured in an incubator (37° C., 5% CO2) for one day.\nFurther, MEM+10% FBS containing 2.2 mM Ca^2+ was used as a normal medium, and SMEM+10% FBS containing 364 μM Ca^2+ was used as a Ca^2+-free medium.\nIntracellular Ca^2+ concentrations were measured using Fluo-4AM (Molecular Probe). 55 μl of DMSO (Dojindo Laboratories, pure solvent for fluorescence analysis) was added to 50 μg of Fluo-4AM, 10 μl of this mixture was added to 1 ml of a medium for measurement (normal medium or Ca^2+-free medium) at 8 μM, and cardiac muscle cells were brought into loading for 30 min. Fluo4 was excited with Ar laser (wavelength, 488 nm), and a fluorescence image at 510 to 560 nm was obtained with a CCD camera (Nippon Roper Co., Ltd., Retiga 2000R). 10 photos were taken with an exposure time of 10 s, and then PDT was performed by irradiation with a semiconductor laser beam (peak wavelength, 670.8 nm; power, 150 mW/cm^2; continuous light; total energy density, 5 or 10 J/cm^2), and a total of 40 photos (for approx. 408 s) were continuously taken during and after PDT. The image analysis was performed using Image J, an image analysis software, and changes in intracellular cumulative fluorescence on each slide were calculated. Assuming the initial cumulative fluorescence F0 as 1, fluorescence changes were calculated by F/F0. Further, cells were incubated at temperature of 37° C. using a hot plate (Tokai Hit) during observation.\nProtocol 1 (Extracellular Distribution of Talaporfin Sodium, Extracellular Normal Ca^2+ Concentration)\n(§1) Fluo-4AM (normal medium solution) is loaded with each well at room temperature for 30 min, then talaporfin sodium (normal medium) adjusted beforehand to various concentrations is added at 0.5 ml/well, and observation is performed immediately after addition.\nProtocol 2 (Intracellular Distribution of Talaporfin Sodium, Extracellular Normal Ca^2+ Concentration)\nas §1, with “performed” for “performed immediately”, “the medium is replaced with a normal medium after 30 min of loading.” for “addition.”\nProtocol 3 (Extracellular Distribution of Talaporfin Sodium, No Extracellular Ca^2+) […]"}}, "note": "“And” between values parts separate entries of the source, which are not always exact repeats. Identical values can stand only once."}
{"smiles": "C=Cc1c(C)c2cc3nc(c(CC(=O)N[C@@H](CC(=O)O)C(=O)O)c4[nH]c(cc5nc(cc1[nH]2)C(C)=C5CC)c(C)c4C(=O)O)[C@@H](CCC(=O)O)[C@@H]3C", "note": "[talaporfin sodium, mono-L-aspartyl chlorine 6]", "values": [{"measurement": "Restart of pulsation in cardiac muscle cells: (number of samples in which pulsation restarted)/(total number of samples)", "setting": "[1]; 5 μg (μg/ml), 1J, 1 d after PDT", "result": "4/8"}, {"measurement": "Restart of pulsation in cardiac muscle cells: (number of samples in which pulsation restarted)/(total number of samples)", "setting": "[1]; 5 μg (μg/ml), 1J, 2 d after PDT", "result": "8/8"}, {"measurement": "Restart of pulsation in cardiac muscle cells: (number of samples in which pulsation restarted)/(total number of samples)", "setting": "[1]; 5 μg (μg/ml), 1J, 3 d after PDT", "result": "8/8"}, {"measurement": "Restart of pulsation in cardiac muscle cells: (number of samples in which pulsation restarted)/(total number of samples)", "setting": "[1]; 5 μg (μg/ml), 2J, 1 d after PDT", "result": "1/8"}, {"measurement": "Restart of pulsation in cardiac muscle cells: (number of samples in which pulsation restarted)/(total number of samples)", "setting": "[1]; 5 μg (μg/ml), 2J, 2 d after PDT", "result": "8/8"}, {"measurement": "Restart of pulsation in cardiac muscle cells: (number of samples in which pulsation restarted)/(total number of samples)", "setting": "[1]; 5 μg (μg/ml), 2J, 3 d after PDT", "result": "8/8"}, {"measurement": "Restart of pulsation in cardiac muscle cells: (number of samples in which pulsation restarted)/(total number of samples)", "setting": "[1]; 5 μg (μg/ml), 3J, 1 d after PDT", "result": "0/8"}, {"measurement": "Restart of pulsation in cardiac muscle cells: (number of samples in which pulsation restarted)/(total number of samples)", "setting": "[1]; 5 μg (μg/ml), 3J, 2 d after PDT", "result": "7/8"}, {"measurement": "Restart of pulsation in cardiac muscle cells: (number of samples in which pulsation restarted)/(total number of samples)", "setting": "[1]; 5 μg (μg/ml), 3J, 3 d after PDT", "result": "8/8"}, {"measurement": "Restart of pulsation in cardiac muscle cells: (number of samples in which pulsation restarted)/(total number of samples)", "setting": "[1]; 5 μg (μg/ml), 5J, 1 d after PDT", "result": "0/8"}, {"measurement": "Restart of pulsation in cardiac muscle cells: (number of samples in which pulsation restarted)/(total number of samples)", "setting": "[1]; 5 μg (μg/ml), 5J, 2 d after PDT", "result": "8/8"}, {"measurement": "Restart of pulsation in cardiac muscle cells: (number of samples in which pulsation restarted)/(total number of samples)", "setting": "[1]; 5 μg (μg/ml), 5J, 3 d after PDT", "result": "8/8"}, {"measurement": "Restart of pulsation in cardiac muscle cells: (number of samples in which pulsation restarted)/(total number of samples)", "setting": "[1]; 10 μg (μg/ml), 1J, 1 d after PDT", "result": "0/8"}, {"measurement": "Restart of pulsation in cardiac muscle cells: (number of samples in which pulsation restarted)/(total number of samples)", "setting": "[1]; 10 μg (μg/ml), 1J, 2 d after PDT", "result": "8/8"}, {"measurement": "Restart of pulsation in cardiac muscle cells: (number of samples in which pulsation restarted)/(total number of samples)", "setting": "[1]; 10 μg (μg/ml), 1J, 3 d after PDT", "result": "8/8"}, {"measurement": "Restart of pulsation in cardiac muscle cells: (number of samples in which pulsation restarted)/(total number of samples)", "setting": "[1]; 10 μg (μg/ml), 2J, 1 d after PDT", "result": "0/8"}, {"measurement": "Restart of pulsation in cardiac muscle cells: (number of samples in which pulsation restarted)/(total number of samples)", "setting": "[1]; 10 μg (μg/ml), 2J, 2 d after PDT", "result": "7/8"}, {"measurement": "Restart of pulsation in cardiac muscle cells: (number of samples in which pulsation restarted)/(total number of samples)", "setting": "[1]; 10 μg (μg/ml), 2J, 3 d after PDT", "result": "8/8"}, {"measurement": "Restart of pulsation in cardiac muscle cells: (number of samples in which pulsation restarted)/(total number of samples)", "setting": "[1]; 10 μg (μg/ml), 3J, 1 d after PDT", "result": "0/8"}, {"measurement": "Restart of pulsation in cardiac muscle cells: (number of samples in which pulsation restarted)/(total number of samples)", "setting": "[1]; 10 μg (μg/ml), 3J, 2 d after PDT", "result": "8/8"}, {"measurement": "Restart of pulsation in cardiac muscle cells: (number of samples in which pulsation restarted)/(total number of samples)", "setting": "[1]; 10 μg (μg/ml), 3J, 3 d after PDT", "result": "8/8"}, {"measurement": "Restart of pulsation in cardiac muscle cells: (number of samples in which pulsation restarted)/(total number of samples)", "setting": "[1]; 10 μg (μg/ml), 5J, 1 d after PDT", "result": "1/8"}, {"measurement": "Restart of pulsation in cardiac muscle cells: (number of samples in which pulsation restarted)/(total number of samples)", "setting": "[1]; 10 μg (μg/ml), 5J, 2 d after PDT", "result": "8/8"}, {"measurement": "Restart of pulsation in cardiac muscle cells: (number of samples in which pulsation restarted)/(total number of samples)", "setting": "[1]; 10 μg (μg/ml), 5J, 3 d after PDT", "result": "8/8"}, {"measurement": "pulsation immediately after PDT", "setting": "[1]; 10 μg/ml, 3 J/cm^2", "result": "the pulsation stopped immediately after PDT"}, {"measurement": "cell conditions at one day after PDT", "setting": "[1]; 10 μg/ml, 3 J/cm^2, FIG. 12", "result": "no damage was observed in the cell conditions"}, {"measurement": "restart of pulsation and synchronization", "setting": "[1]; 10 μg/ml, 3 J/cm^2, see Table 1", "result": "the pulsation restarted, and synchronization was observed at about one to three days after experiment"}, {"measurement": "Restart of pulsation in cardiac muscle cells: (number of samples in which pulsation restarted)/(total number of samples)", "setting": "[1]; 15 μg (μg/ml), 1J, 1 d after PDT", "result": "0/8"}, {"measurement": "Restart of pulsation in cardiac muscle cells: (number of samples in which pulsation restarted)/(total number of samples)", "setting": "[1]; 15 μg (μg/ml), 1J, 2 d after PDT", "result": "8/8"}, {"measurement": "Restart of pulsation in cardiac muscle cells: (number of samples in which pulsation restarted)/(total number of samples)", "setting": "[1]; 15 μg (μg/ml), 1J, 3 d after PDT", "result": "8/8"}, {"measurement": "Restart of pulsation in cardiac muscle cells: (number of samples in which pulsation restarted)/(total number of samples)", "setting": "[1]; 15 μg (μg/ml), 2J, 1 d after PDT", "result": "0/8"}, {"measurement": "Restart of pulsation in cardiac muscle cells: (number of samples in which pulsation restarted)/(total number of samples)", "setting": "[1]; 15 μg (μg/ml), 2J, 2 d after PDT", "result": "8/8"}, {"measurement": "Restart of pulsation in cardiac muscle cells: (number of samples in which pulsation restarted)/(total number of samples)", "setting": "[1]; 15 μg (μg/ml), 2J, 3 d after PDT", "result": "8/8"}, {"measurement": "Restart of pulsation in cardiac muscle cells: (number of samples in which pulsation restarted)/(total number of samples)", "setting": "[1]; 15 μg (μg/ml), 3J, 1 d after PDT", "result": "1/8"}, {"measurement": "Restart of pulsation in cardiac muscle cells: (number of samples in which pulsation restarted)/(total number of samples)", "setting": "[1]; 15 μg (μg/ml), 3J, 2 d after PDT", "result": "8/8"}, {"measurement": "Restart of pulsation in cardiac muscle cells: (number of samples in which pulsation restarted)/(total number of samples)", "setting": "[1]; 15 μg (μg/ml), 3J, 3 d after PDT", "result": "8/8"}, {"measurement": "Restart of pulsation in cardiac muscle cells: (number of samples in which pulsation restarted)/(total number of samples)", "setting": "[1]; 15 μg (μg/ml), 5J, 1 d after PDT", "result": "0/8"}, {"measurement": "Restart of pulsation in cardiac muscle cells: (number of samples in which pulsation restarted)/(total number of samples)", "setting": "[1]; 15 μg (μg/ml), 5J, 2 d after PDT", "result": "8/8"}, {"measurement": "Restart of pulsation in cardiac muscle cells: (number of samples in which pulsation restarted)/(total number of samples)", "setting": "[1]; 15 μg (μg/ml), 5J, 3 d after PDT", "result": "8/8"}, {"measurement": "restart of pulsation", "setting": "[1]; 20 μg/ml, 3 J/cm^2", "result": "The pulsation did not restart permanently"}, {"measurement": "cell conditions at one day after PDT", "setting": "[1]; 20 μg/ml, 3 J/cm^2, FIG. 13", "result": "Associated cells were separated, and individual cells themselves shrank"}, {"measurement": "cell morphology during and after PDT", "setting": "[2]; FIG. 23", "result": "1) swelling of the cell itself and 2) growth of “bobble” were observed and Cell morphology did not virtually change after PDT"}, {"measurement": "change in intracellular Ca^2+ concentration during PDT", "setting": "[2]; no extracellular Ca^2+, 30 μg/ml, 10 J/cm2", "result": "the intracellular Ca^2+ concentrations hardly changed"}, {"measurement": "change in intracellular Ca^2+ concentration during PDT", "setting": "[2]; normal extracellular Ca^2+ concentration", "result": "Rapid increases in the intracellular Ca^2+ concentrations were observed immediately after performing PDT"}, {"measurement": "change in intracellular Ca^2+ concentration, photosensitizer outside vs inside the cell", "setting": "[2]; normal extracellular Ca^2+, 0 min loading vs 30 min loading", "result": "rapid changes in the Ca^2+ concentration were confirmed when the photosensitizer exists only outside the cell"}]}
